{
  "source": "patent US10010539B2",
  "about": "“Pyrazole, triazole and tetrazole orexin receptor antagonists” (MERCK SHARP & DOHME CORP., priority 2014, dated 2018)",
  "key": {"[1]": {"target": "human orexin-2 receptor (Homo sapiens (Human), UniProt O43614)", "sequence (O43614 whole entry)": "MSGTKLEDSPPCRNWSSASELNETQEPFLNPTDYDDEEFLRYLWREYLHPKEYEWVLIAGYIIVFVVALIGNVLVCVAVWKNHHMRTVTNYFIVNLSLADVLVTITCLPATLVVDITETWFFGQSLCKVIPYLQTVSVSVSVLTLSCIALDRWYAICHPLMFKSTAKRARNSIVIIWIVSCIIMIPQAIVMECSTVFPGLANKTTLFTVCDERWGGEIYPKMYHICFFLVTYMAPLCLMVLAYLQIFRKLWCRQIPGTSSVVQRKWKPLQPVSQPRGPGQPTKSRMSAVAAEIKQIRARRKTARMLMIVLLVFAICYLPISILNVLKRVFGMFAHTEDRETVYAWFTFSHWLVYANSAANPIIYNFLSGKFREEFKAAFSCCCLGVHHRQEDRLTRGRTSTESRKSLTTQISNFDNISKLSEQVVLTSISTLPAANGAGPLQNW", "assay": "FLIPR Ca2+ Flux Assay, orexin-2 receptor (hOX2R FLIPR)", "format": "cell-based", "conditions": "CHO cells expressing the human orexin-2 receptor; agonist 70 pM Ala-6,12 human orexin-A", "outline": "(§1)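 Calcium flux in CHO cells bearing rat orexin-1 or human orexin-2 receptor; antagonist 5 min, then 70 pM Ala-6,12 orexin-A. Buffer HBSS, 20 mM HEPES, 0.1% BSA, 2.5 mM probenecid, pH7.4. Read-out: peak fluorescence, IC50.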"}, "[2]": {"target": "hOXIR (orexin-1 receptor) (Homo sapiens, UniProt O43613)", "assay": "FLIPR Ca2+ Flux Assay, orexin-1 receptor (hOXIR FLIPR)", "format": "cell-based", "conditions": "CHO cells expressing the orexin-1 receptor (method text: rat; table head: hOXIR); agonist 70 pM Ala-6,12 human orexin-A", "outline": "as §1"}},
  "data": [
    {"smiles": "C[C@@H]1CC[C@@H](n2cc([C@@H](O)C(F)(F)F)cn2)CN1C(=O)c1ccccc1-n1nccn1", "note": "[Example 102, (1R)-2,2,2-Trifluoro-1-{1-[(3R,6R)-6-methyl-1-{[2-(2H-1,2,3-triazol-2-yl)phenyl]carbonyl}piperidin-3-yl]-1H-pyrazol-4-yl}ethanol]", "values": [
      {"measurement": "IC50", "setting": "[1]", "value": 124, "unit": "nM"},
      {"measurement": "IC50", "setting": "[2]", "value": "> 10000", "unit": "nM"}
    ]},
    {"smiles": "C[C@@H]1CC[C@@H](n2ncc(C(C)(C)O)n2)CN1C(=O)c1ccccc1[C@H]1CC1(F)F", "note": "[Example 23, 2-{2-[(3R,6R)-1-({2-[(1R)-2,2-difluorocyclopropyl]phenyl}carbonyl)-6-methylpiperidin-3-yl]-2H-1,2,3-triazol-4-yl}propan-2-ol]", "values": [
      {"measurement": "IC50", "setting": "[1]", "value": 46.9, "unit": "nM"},
      {"measurement": "IC50", "setting": "[2]", "value": "> 10000", "unit": "nM"}
    ]},
    {"smiles": "C[C@@H]1CC[C@@H](n2ncc(C(C)(C)O)n2)CN1C(=O)c1ccccc1OCC(F)F", "note": "[Example 18, (2-(2,2-Difluoroethoxy)phenyl)((2R,5R)-5-(4-(2-hydroxypropan-2-yl)-2H-1,2,3-triazol-2-yl)-2-methylpiperidin-1-yl)methanone]", "values": [
      {"measurement": "IC50", "setting": "[1]", "value": 15, "unit": "nM"},
      {"measurement": "IC50", "setting": "[2]", "value": "> 10000", "unit": "nM"}
    ]},
    {"smiles": "C[C@@H]1CC[C@@H](n2cc(C(C)(C)O)cn2)CN1C(=O)c1ccccc1[C@H]1CC1(F)F", "note": "[Example 86, 2-{1-[(3R,6R)-1-({2-[(1R)-2,2-Difluorocyclopropyl]phenyl}carbonyl)-6-methylpiperidin-3-yl]-1H-pyrazol-4-yl}propan-2-ol]", "values": [
      {"measurement": "IC50", "setting": "[1]", "value": 152, "unit": "nM"},
      {"measurement": "IC50", "setting": "[2]", "value": "> 10000", "unit": "nM"}
    ]},
    {"smiles": "COCc1ccccc1C(=O)N1C[C@H](n2ncc(C(C)(C)O)n2)CC[C@H]1C", "note": "[Example 56, 2-{2-[(3R,6R)-1-{[2-(methoxymethyl)phenyl]carbonyl}-6-methylpiperidin-3-yl]-2H-1,2,3-triazol-4-yl}propan-2-ol]", "values": [
      {"measurement": "IC50", "setting": "[1]", "value": 308, "unit": "nM"},
      {"measurement": "IC50", "setting": "[2]", "value": "> 10000", "unit": "nM"}
    ]},
    {"smiles": "C[C@@H]1CC[C@@H](n2ncc(Br)n2)CN1C(=O)c1ccccc1-n1nccn1", "note": "[Example 29, (2-(2H-1,2,3-triazol-2-yl)phenyl)((2R,5R)-5-(4-bromo-2H-1,2,3-triazol-2-yl)-2-methylpiperidin-1-yl)methanone]", "values": [
      {"measurement": "IC50", "setting": "[1]", "value": 362, "unit": "nM"},
      {"measurement": "IC50", "setting": "[2]", "value": "> 10000", "unit": "nM"}
    ]},
    {"smiles": "CC(O)c1cnn([C@@H]2CC[C@@H](C)N(C(=O)c3cccnc3OCC(F)F)C2)n1", "note": "(stereo partly drawn) [Example 61, 1-{2-[(3R,6R)-1-{[2-(2,2-Difluoroethoxy)pyridin-3-yl]carbonyl}-6-methylpiperidin-3-yl]-2H-1,2,3-triazol-4-yl}ethanol]", "values": [
      {"measurement": "IC50", "setting": "[1]", "value": 681, "unit": "nM"},
      {"measurement": "IC50", "setting": "[2]", "value": "> 10000", "unit": "nM"}
    ]},
    {"smiles": "C[C@@H]1CC[C@@H](n2cc(C(C)(C)O)cn2)CN1C(=O)c1ccccc1OC(F)F", "note": "[Example 84, 2-{1-[(3R,6R)-1-{[2-(Difluoromethoxy)phenyl]carbonyl}-6-methylpiperidin-3-yl]-1H-pyrazol-4-yl}propan-2-ol]", "values": [
      {"measurement": "IC50", "setting": "[1]", "value": 464, "unit": "nM"},
      {"measurement": "IC50", "setting": "[2]", "value": "> 10000", "unit": "nM"}
    ]},
    {"smiles": "C[C@@H]1CC[C@@H](n2ncc(C(C)(C)O)n2)CN1C(=O)c1cc(F)ccc1-n1nccn1", "note": "[Example 38, 2-{2-[(3R,6R)-1-{[5-fluoro-2-(2H-1,2,3-triazol-2-yl)phenyl]carbonyl}-6-methylpiperidin-3-yl]-2H-1,2,3-triazol-4-yl}propan-2-ol]", "values": [
      {"measurement": "IC50", "setting": "[1]", "value": 27.5, "unit": "nM"},
      {"measurement": "IC50", "setting": "[2]", "value": "> 10000", "unit": "nM"}
    ]},
    {"smiles": "C[C@@H]1CC[C@@H](n2cc(C(C)(C)O)cn2)CN1C(=O)c1nccnc1-n1cccn1", "note": "[Example 95, 2-{1-[(3R,6R)-6-Methyl-1-{[3-(1H-pyrazol-1-yl)pyrazin-2-yl]carbonyl}piperidin-3-yl]-1H-pyrazol-4-yl}propan-2-ol]", "values": [
      {"measurement": "IC50", "setting": "[1]", "value": 271, "unit": "nM"},
      {"measurement": "IC50", "setting": "[2]", "value": "> 10000", "unit": "nM"}
    ]},
    {"smiles": "C[C@@H]1CC[C@@H](n2ncc(C(C)(C)O)n2)CN1C(=O)c1ncccc1-n1nccn1", "note": "[Example 58, 2-{2-[(3R,6R)-6-Methyl-1-{[3-(2H-1,2,3-triazol-2-yl)pyridin-2-yl]carbonyl}piperidin-3-yl]-2H-1,2,3-triazol-4-yl}propan-2-ol]", "values": [
      {"measurement": "IC50", "setting": "[1]", "value": 44.9, "unit": "nM"},
      {"measurement": "IC50", "setting": "[2]", "value": "> 10000", "unit": "nM"}
    ]},
    {"smiles": "C[C@@H]1CC[C@@H](n2ncc(C(C)(C)O)n2)CN1C(=O)c1ccccc1OC(F)F", "note": "[Example 21, (2-(Difluoromethoxy)phenyl)((2R,5R)-5-(4-(2-hydroxypropan-2-yl)-2H-1,2,3-triazol-2-yl)-2-methylpiperidin-1-yl)methanone]", "values": [
      {"measurement": "IC50", "setting": "[1]", "value": 18, "unit": "nM"},
      {"measurement": "IC50", "setting": "[2]", "value": "> 10000", "unit": "nM"}
    ]},
    {"smiles": "Cc1nn([C@@H]2CC[C@@H](C)N(C(=O)c3cccnc3OC(C)C)C2)nc1C(C)(C)O", "note": "[Example 63, 2-{5-Methyl-2-[(3R,6R)-6-methyl-1-{[2-(1-methylethoxy)pyridin-3-yl]carbonyl}piperidin-3-yl]-2H-1,2,3-triazol-4-yl}propan-2-ol]", "values": [
      {"measurement": "IC50", "setting": "[1]", "value": 15.9, "unit": "nM"},
      {"measurement": "IC50", "setting": "[2]", "value": 3350, "unit": "nM"}
    ]},
    {"smiles": "Cc1nn([C@@H]2CC[C@@H](C)N(C(=O)c3ccccc3C3CC3)C2)nc1C(C)(C)O", "note": "[Example 70, 2-(2-{(3R,6R)-1-[(2-Cyclopropylphenyl)carbonyl]-6-methylpiperidin-3-yl}-5-methyl-2H-1,2,3-triazol-4-yl)propan-2-ol]", "values": [
      {"measurement": "IC50", "setting": "[1]", "value": 8.8, "unit": "nM"},
      {"measurement": "IC50", "setting": "[2]", "value": 760, "unit": "nM"}
    ]},
    {"smiles": "C[C@@H]1CC[C@@H](n2ncc(C(C)(C)O)n2)CN1C(=O)c1cccc(F)c1-n1nccn1", "note": "[Example 31, 2-{2-[(3R,6R)-1-{[3-fluoro-2-(2H-1,2,3-triazol-2-yl)phenyl]carbonyl}-6-methylpiperidin-3-yl]-2H-1,2,3-triazol-4-yl}propan-2-ol]", "values": [
      {"measurement": "IC50", "setting": "[1]", "value": 36.4, "unit": "nM"},
      {"measurement": "IC50", "setting": "[2]", "value": "> 10000", "unit": "nM"}
    ]},
    {"smiles": "CC(C)Oc1ccccc1C(=O)N1C[C@H](n2ncc(C(C)(C)O)n2)CC[C@H]1C", "note": "[Example 17, ((2R,5R)-5-(4-(2-Hydroxypropan-2-yl)-2H-1,2,3-triazol-2-yl)-2-methylpiperidin-1-yl)(2-isopropoxyphenyl)methanone]", "values": [
      {"measurement": "IC50", "setting": "[1]", "value": 16.1, "unit": "nM"},
      {"measurement": "IC50", "setting": "[2]", "value": 3680, "unit": "nM"}
    ]},
    {"smiles": "C[C@@H]1CC[C@@H](n2cc(C(C)(C)O)cn2)CN1C(=O)c1nccnc1-n1nccn1", "note": "[Example 101, 2-{1-[(3R,6R)-6-Methyl-1-{[3-(2H-1,2,3-triazol-2-yl)pyrazin-2-yl]carbonyl}piperidin-3-yl]-1H-pyrazol-4-yl}propan-2-ol]", "values": [
      {"measurement": "IC50", "setting": "[1]", "value": 479, "unit": "nM"},
      {"measurement": "IC50", "setting": "[2]", "value": "> 10000", "unit": "nM"}
    ]},
    {"smiles": "CCCc1ncccc1C(=O)N1C[C@H](n2ncc(C(C)(C)O)n2)CC[C@H]1C", "note": "[Example 3, ((2R,5R)-5-(4-(2-Hydroxypropan-2-yl)-2H-1,2,3-triazol-2-yl)-2-methylpiperidin-1-yl)(2-propylpyridin-3-yl)methanone]", "values": [
      {"measurement": "IC50", "setting": "[1]", "value": 1060, "unit": "nM"},
      {"measurement": "IC50", "setting": "[2]", "value": "> 10000", "unit": "nM"}
    ]},
    {"smiles": "Cc1nn([C@@H]2CC[C@@H](C)N(C(=O)c3cccnc3OCC(F)F)C2)nc1C(C)(C)O", "note": "[Example 64, 2-{2-[(3R,6R)-1-{[2-(2,2-Difluoroethoxy)pyridin-3-yl]carbonyl}-6-methylpiperidin-3-yl]-5-methyl-2H-1,2,3-triazol-4-yl}propan-2-ol]", "values": [
      {"measurement": "IC50", "setting": "[1]", "value": 8.8, "unit": "nM"},
      {"measurement": "IC50", "setting": "[2]", "value": 2990, "unit": "nM"}
    ]},
    {"smiles": "Cc1nn([C@@H]2CC[C@@H](C)N(C(=O)c3ccccc3-n3cccn3)C2)nc1C(C)(C)O", "note": "[Example 71, 2-{5-Methyl-2-[(3R,6R)-6-methyl-1-{[2-(1H-pyrazol-1-yl)phenyl]carbonyl}piperidin-3-yl]-2H-1,2,3-triazol-4-yl}propan-2-ol]", "values": [
      {"measurement": "IC50", "setting": "[1]", "value": 9.3, "unit": "nM"},
      {"measurement": "IC50", "setting": "[2]", "value": 2710, "unit": "nM"}
    ]}
  ]
}
